Legend:
human CYP11B1 = molecular target: T1, human CYP11B1 (Homo sapiens, UniProt P15538); assay: G-402 cellular enzyme assay, human CYP11B1 (cortisol release, HTRF); format: cell-based; details: G-402 cells expressing human CYP11B1; 1 μM Deoxycortisol; 16 h
T1 construct: expressed in transfected cells
T1 sequence (P15538 25-503): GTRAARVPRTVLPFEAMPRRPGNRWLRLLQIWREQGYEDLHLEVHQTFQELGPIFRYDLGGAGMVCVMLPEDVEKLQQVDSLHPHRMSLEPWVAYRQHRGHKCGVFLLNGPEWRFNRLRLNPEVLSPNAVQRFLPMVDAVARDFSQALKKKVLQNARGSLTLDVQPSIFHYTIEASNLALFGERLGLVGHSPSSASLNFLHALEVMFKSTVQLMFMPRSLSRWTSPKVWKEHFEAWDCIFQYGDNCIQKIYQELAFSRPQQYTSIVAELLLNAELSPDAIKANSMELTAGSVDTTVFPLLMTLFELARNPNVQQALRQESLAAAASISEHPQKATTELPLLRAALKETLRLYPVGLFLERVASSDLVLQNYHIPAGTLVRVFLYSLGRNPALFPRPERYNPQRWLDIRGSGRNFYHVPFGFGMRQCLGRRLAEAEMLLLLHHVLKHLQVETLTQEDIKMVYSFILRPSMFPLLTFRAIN
In short: (§1)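 G-402 cells stably expressing human CYP11B2 or CYP11B1, incubated 16 h with compound in DMEM/F12 with 2.5% charcoal-treated FCS plus 1 μM deoxycorticosterone (CYP11B2) or 1 μM deoxycortisol (CYP11B1). Aldosterone or cortisol in supernatant measured by HTRF; EC50 from 4-parameter MMF fit.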

human CYP11B2 = molecular target: T2, human CYP11B2 (Homo sapiens, UniProt P19099); assay: G-402 cellular enzyme assay, human CYP11B2 (aldosterone release, HTRF); format: cell-based; details: G-402 cells expressing human CYP11B2; 1 μM Deoxycorticosterone; 16 h
T2 construct: expressed in transfected cells
T2 sequence (P19099 25-503): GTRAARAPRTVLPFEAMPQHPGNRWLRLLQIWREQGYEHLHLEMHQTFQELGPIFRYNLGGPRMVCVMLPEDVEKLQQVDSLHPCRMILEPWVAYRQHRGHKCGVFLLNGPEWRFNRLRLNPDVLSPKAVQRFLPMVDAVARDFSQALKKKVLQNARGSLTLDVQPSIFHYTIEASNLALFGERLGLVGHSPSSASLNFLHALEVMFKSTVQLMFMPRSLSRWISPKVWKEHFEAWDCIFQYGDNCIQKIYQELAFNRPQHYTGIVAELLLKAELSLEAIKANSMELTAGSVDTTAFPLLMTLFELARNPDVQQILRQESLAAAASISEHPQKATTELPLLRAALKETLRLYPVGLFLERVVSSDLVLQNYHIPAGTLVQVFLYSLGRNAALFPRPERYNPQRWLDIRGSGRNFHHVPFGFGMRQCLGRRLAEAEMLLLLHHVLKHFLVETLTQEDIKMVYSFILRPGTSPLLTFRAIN
In short: as §1

[1] = test system: rat model of chronic kidney disease; details: rat CKD model, cited from earlier work; for renal effects (albuminuria, azotemia, renovascular hypertrophy, glomerular injury, PAI-1 and osteopontin mRNA, tubulointerstitial fibrosis): angiotensin II and high salt
[2] = test system: rats with experimental heart failure; details: cited from earlier work
[3] = test system: patients with primary aldosteronism; details: oral; cited from earlier work

Compound	EC50 (human CYP11B1)	EC50 (human CYP11B2)	other results
CCn1cncc1C(=O)c1ccc(N(C)C(=O)OC(C)(C)C)cc1 [Example 88, [4-(3-Ethyl-3H-imidazole-4-carbonyl)-phenyl]-methyl-carbamic acid tert-butyl ester]	1.29 µM	2.2 µM	–
CCn1cncc1C(=O)c1ccc(N(C)C=O)cc1 [Example 89, N-[4-(3-Ethyl-3H-imidazole-4-carbonyl)-phenyl]-N-methyl-formamide]	0.744 µM	0.0294 µM	–
CC(C)n1cncc1C(=O)c1ccc(N(C)C=O)cc1 [Example 93, N-[4-(3-Isopropyl-3H-imidazole-4-carbonyl)-phenyl]-N-methyl-formamide]	0.349 µM	0.0117 µM	–
N#Cc1ccc(C2CCCc3cncn32)cc1 (stereo not shown) [FAD286]	–	–	plasma aldosterone ([1]; 4 weeks of treatment): reduced; renal effects (albuminuria, azotemia, renovascular hypertrophy, glomerular injury, PAI-1 and osteopontin mRNA, tubulointerstitial fibrosis) [1]: prevented; angiotensin II and salt-stimulated PAI-1 mRNA expression in the aorta and the heart [1]: not; cardiac and aortic medial hypertrophy [1]: attenuated; blood pressure and cardiovascular function and structure [2]: improved; kidney function and morphology [2]: improve
N#Cc1ccc([C@H]2CCc3cncn32)c(F)c1 [LCI699]	–	–	blood pressure [3]: mildly decreased; circulating aldosterone levels [3]: significantly lower; hypokalemia [3]: corrected
CC(=O)S[C@@H]1CC2=CC(=O)CC[C@]2(C)[C@H]2CC[C@@]3(C)[C@@H](CC[C@@]34CCC(=O)O4)[C@H]12 [spironolactone]	–	–	renal effects (albuminuria, azotemia, renovascular hypertrophy, glomerular injury, PAI-1 and osteopontin mRNA, tubulointerstitial fibrosis) [1]: prevented; aldosterone ([1]; at 4 and 8 weeks of treatment): increased; angiotensin II and salt-stimulated PAI-1 mRNA expression in the aorta and the heart [1]: enhanced; cardiac and aortic medial hypertrophy [1]: attenuated

Second part, led by results:

EC50 (human CYP11B1)	EC50 (human CYP11B2)	Compound	other results
3.75 µM	1.62 µM	CNc1ccc(C(=O)c2cncn2C)cc1 [Example 86, (4-Methylamino-phenyl)-(3-methyl-3H-imidazol-4-yl)-methanone]	–
30.4 µM	0.186 µM	CN(C=O)c1ccc(C(=O)c2cncn2C)cc1 [Example 87, N-Methyl-N-[4-(3-methyl-3H-imidazole-4-carbonyl)-phenyl]-formamide]	–
3.62 µM	0.0026 µM	O=C(c1ccc(Cl)cc1)c1cncn1-c1ccc(Cl)cc1 [Example 90, (4-Chloro-phenyl)-[3-(4-chloro-phenyl)-3H-imidazol-4-yl]-methanone]	–
0.439 µM	0.0042 µM	O=C(c1ccc(Cl)c(Cl)c1)c1cncn1-c1ccc(Cl)cc1 [Example 91, [3-(4-Chloro-phenyl)-3H-imidazol-4-yl]-(3,4-dichloro-phenyl)-methanone]	–
0.132 µM	0.0032 µM	O=C(c1ccc(Cl)c(F)c1)c1cncn1-c1ccc(Cl)cc1 [Example 92, (4-Chloro-3-fluoro-phenyl)-[3-(4-chloro-phenyl)-3H-imidazol-4-yl]-methanone]	–
0.0846 µM	0.0144 µM	N#Cc1ccc(-n2cncc2C(=O)c2ccc(Cl)c(F)c2)cc1 [Example 94, 4-[5-(4-Chloro-3-fluoro-benzoyl)-imidazol-1-yl]-benzonitrile]	–
0.0718 µM	0.0022 µM	N#Cc1ccc(-n2cncc2C(=O)c2ccc(Cl)cc2)cc1 [Example 95, 4-[5-(4-Chloro-benzoyl)-imidazol-1-yl]-benzonitrile]	–
0.199 µM	0.0056 µM	N#Cc1ccc(-n2cncc2C(=O)c2ccc(Cl)c(Cl)c2)cc1 [Example 96, 4-[5-(3,4-Dichloro-benzoyl)-imidazol-1-yl]-benzonitrile]	–
0.0746 µM	0.0034 µM	O=C(c1ccc(F)c(F)c1)c1cncn1-c1ccc(Cl)cc1 [Example 97, [3-(4-Chloro-phenyl)-3H-imidazol-4-yl]-(3,4-difluoro-phenyl)-methanone]	–
